This note sets out measurements from patent publication US20200030455A1, “MULTISTEP TUMOR TARGETING BY TAGGED ANTIBODY DERIVATIVES AND TAGGED DRUGS” (ISTITUTO BIOCHIMICO ITALIANO GIOVANNI LORENZINI S.P.A, priority 2017, published 2020).

In test [1] the test system is SK-BR-3 breast carcinoma cells. Briefly: 3H-Thymidine incorporation (cell proliferation) assay. It counts as cell-based, human. The settings on record: drug alone, without Toolbox cocktail; 5 and 50 μM; 72 h. The protocol: NAX 098 was modified by covalent addition of the polypeptide StrepTag ([…]), as also shown in (A). SK-BR-3 breast carcinoma cells were seeded in 96-well plates (quadruplicates), and cultured for 30 min in the presence of ScFv (10 μg/ml). Meanwhile, equal molar concentrations of NAX 098 and NAX […] (or RPMI 1640 medium, as a control) were pre-incubated with StrepTactMult in complete culture medium (RPMI 1640 containing 10% bovine serum) to form drug: StrepTactin complexes. The drug: StrepTactin complexes were added to separate cultures to yield a final StrpTactMult concentration of 0.75 μg/well (approximately 3.2 μg/ml), and two final drug concentrations of 5 and 50 μM, as indicated in (B). As a control, equal amounts of NAX 098 and NAX […] drugs were added to separate wells in the absence of the Toolbox cocktail. All the cells were cultured for 72 h, and ^3H-Thymidine incorporation was assessed over a 4 h radioactive pulse. Results were expressed as percent of radioactive Thymidine incorporation as compared to untreated (RPMI 1640 vehicle alone) control cells.

The test system of test [2] is ERBB2 pathway (c-Fos promoter reporter) in BRC 230 breast carcinoma cells. The test is described as follows: c-Fos promoter reporter (luminescence, RLU) assay of ERBB2 signaling. It counts as cell-based. An excerpt: Mertansine was StrepTagged using a linker-spacer (depicted in A). The Strep-tag peptide WSHPQFEK (SEQ ID NO 2) was linked to the mertansine thiol group using the protocol disclosed in Bioconjugate Techniques, 3rd Edition Bioconjugate Techniques, 3rd Edition (2013) by Greg T. Hermanson. BRC 230 breast carcinoma cells, expressing moderate levels of ERBB2 were stably transfected with a promoter-reporter gene construct in which luciferase is placed under the control of the c-Fos promoter. […] Therefore, c-Fos activation is proportional to ERBB2 signaling, and luminescence is expected to decrease in response to the Toolbox treatment. BRC transfectants were seeded in 96-well plates (quadruplicates), and cultured for 24 h either in the presence or in the absence of the ERB-specific growth factor Neuregulin 1 (NRG-1) at a concentration of 5 nM, as indicated. During the last 30 min of this incubation ScFv (10 μg/ml) was added, where indicated. Meanwhile, equal molar concentrations of StrepTagged Mertansine (or RPMI 1640 medium, as a control) were pre-incubated with StrepTactMult in complete culture medium (RPMI 1640 containing 10% bovine serum) to form drug: StrepTactin complexes. […] All the cells were cultured for additional 72 h, and Relative Luminescence Units (RLU) were assessed in a luminometer.

Consider `COc1ccc2c(CCc3ccc(Cl)cc3)c3[n+](cc2c1OCCCN1C(=O)C=CC1=O)CCc1cc2c(cc1-3)OCO2` [NAX 098, 9-(3-propylmaleimide)-13-[2-(4-chlorophenyl)ethyl]berberine], for which the “inhibition of cell proliferation (3H-Thymidine incorporation vs untreated control)” value in test [1] was “strongly inhibited cell proliferation”.
Consider “StrepTagged Mertansine: Strep-tag peptide WSHPQFEK linked to the mertansine thiol group using a linker-spacer”, for which the “activity of the ERBB2 pathway (Relative Luminescence Units)” value in test [2] (BRC 230 transfectants, with or without NRG-1 5 nM, ScFv 10 μg/ml, drug 5 nM, 72 h) is “inhibited the ERBB2 pathway”. Besides, the “activity of the StrepTagged drug before system-mediated dispatch” value in test [2] (figure legend of Drawing 4) is on record as “inactivates the drug”.
